Laboratory results: the supplement of paper PMC10307832

Key:
Assay in all cases: relative viability (nuclei count vs DMSO), 5 days (fraction); higher = more cells survive
[1] = compound: CC(C)C[C@H](NC(=O)[C@H](Cc1ccccc1)NC(=O)c1cnccn1)B(O)O [Bortezomib] + COc1cccc2cc(-c3nc([C@H]4CC[C@H](C(=O)O)CC4)n4ncnc(N)c34)[nH]c12 [OSI-027] (partner 0.5 µM)
How it was run: (§1)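 Nuclei were stained with Hoechst during a one-step fixation (final 0.05% Triton X-100, 1% formaldehyde, 1 ug/ml Hoechst) carried out 5 days after dosing, then counted on 4× images. The cells, lung cancer lines in 1536-well plates, had been dosed by pin tool the day after seeding with one drug alone or a fixed anchor-drug dose plus five library-drug doses (not always all listed) in √10 steps. Relative viability is the nuclei count in treated wells divided by that in vehicle wells, and each value is the median of duplicate plates.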

[2] = compound: CC(C)C[C@H](NC(=O)[C@H](Cc1ccccc1)NC(=O)c1cnccn1)B(O)O [Bortezomib] + O=C(c1cc(Cc2n[nH]c(=O)c3ccccc23)ccc1F)N1CCN(C(=O)C2CC2)CC1 [Olaparib] (partner 8 µM)
How it was run: as §1

[3] = compound: COC1=CC(c2cc3ccccc3[nH]2)=N/C1=C\c1[nH]c(C)cc1C [Obatoclax] + CC(C)C[C@H](NC(=O)[C@H](Cc1ccccc1)NC(=O)c1cnccn1)B(O)O [Bortezomib] (partner 0.002 µM)
How it was run: as §1

[4] = compound: COC1=CC(c2cc3ccccc3[nH]2)=N/C1=C\c1[nH]c(C)cc1C [Obatoclax] + CCNC(=O)c1noc(-c2cc(C(C)C)c(O)cc2O)c1-c1ccc(CN2CCOCC2)cc1 [Luminespib] (partner 0.01 µM)
How it was run: as §1

Cell Line	relative viability ([1]; first compound 0.0002 µM)	relative viability ([1]; first compound 0.000632 µM)	relative viability ([1]; first compound 0.002 µM)	relative viability ([1]; first compound 0.006325 µM)	relative viability ([1]; first compound 0.02 µM)	relative viability ([2]; first compound 0.0002 µM)	relative viability ([2]; first compound 0.000632 µM)	relative viability ([2]; first compound 0.002 µM)	relative viability ([2]; first compound 0.006325 µM)	relative viability ([2]; first compound 0.02 µM)	relative viability ([3]; first compound 0.01 µM)	relative viability ([3]; first compound 0.03162 µM)	relative viability ([3]; first compound 0.1 µM)	relative viability ([3]; first compound 0.3162 µM)	relative viability ([3]; first compound 1 µM)	relative viability ([4]; first compound 0.01 µM)	relative viability ([4]; first compound 0.03162 µM)	relative viability ([4]; first compound 0.1 µM)	relative viability ([4]; first compound 0.3162 µM)	relative viability ([4]; first compound 1 µM)
HARA	0.439	0.322	0.616	0.0379	0.0617	0.973	0.809	0.872	0.0712	0.0979	1.1	0.759	1.17	1.02	0.724	0.889	0.827	0.728	0.692	1.05
HCC-78	0.36	0.352	0.372	0.385	0.263	0.928	0.662	0.398	0.233	0.258	0.539	0.402	0.718	0.456	0.743	–	–	–	–	–
HCC-366	0.821	0.539	1.1	0.742	0.047	0.358	0.376	0.455	0.0607	0.0196	1.06	1	1.08	0.88	1.04	–	–	–	–	–
IA-LM	–	–	–	–	–	0.765	0.824	0.791	0.0665	0.0149	0.838	0.723	0.727	0.0591	0.0714	–	–	–	–	–
LK-2	0.223	0.174	0.175	0.175	0.177	0.699	0.695	0.714	0.169	0.123	–	–	–	–	–	0.183	0.23	0.231	0.189	0.164
NCI-H358	0.849	0.547	0.703	0.0722	0.0716	0.773	0.541	0.46	0.0684	0.076	–	–	–	–	–	0.395	0.245	0.449	0.351	0.161
NCI-H522	0.632	0.556	0.724	0.439	0.465	0.62	0.618	0.744	0.347	0.313	–	–	–	–	–	1.17	1.1	1.07	–	1.01
NCI-H1299	–	–	–	–	–	0.98	0.917	1.03	0.239	0.103	0.969	1.05	0.982	1	0.93	–	–	–	–	–
NCI-H1395	0.574	0.529	0.639	0.353	0.271	0.474	0.45	0.361	0.336	0.328	–	–	–	–	–	0.634	0.491	0.701	0.523	0.421
NCI-H1563	0.795	0.751	0.653	0.519	0.485	–	–	–	–	–	0.905	0.883	0.835	0.714	0.833	0.519	0.528	0.529	0.503	0.517
NCI-H1623	0.434	0.473	0.468	0.36	0.295	–	–	–	–	–	–	–	–	–	–	0.561	0.437	0.662	0.571	0.547
NCI-H1648	0.256	0.293	0.251	0.256	0.229	0.721	0.822	0.799	0.238	0.267	–	–	–	–	–	–	–	–	–	–
NCI-H1703	–	–	–	–	–	0.417	0.318	0.123	0.0785	0.0739	0.456	0.38	0.304	0.227	0.22	–	–	–	–	–
NCI-H1793	0.278	0.213	0.272	0.223	0.145	0.848	–	0.904	0.276	0.126	–	–	–	–	–	0.119	0.128	0.187	0.183	0.192
NCI-H1944	0.383	0.383	0.449	0.347	0.239	0.419	0.392	0.414	0.331	0.142	–	–	–	–	–	0.794	0.66	0.735	0.75	0.636
NCI-H2170	0.688	0.463	0.69	0.566	0.182	0.583	0.576	0.584	0.11	0.102	–	–	–	–	–	0.624	0.592	0.761	0.588	0.652
NCI-H2342	0.656	0.524	0.616	0.634	0.587	0.514	0.503	0.382	0.473	0.273	–	–	–	–	–	0.592	0.87	0.777	0.644	0.716
SK-MES-1	0.64	0.591	0.47	0.14	0.128	0.649	0.839	0.521	0.171	0.159	–	–	–	–	–	0.737	0.837	0.677	0.298	0.252
SW 900	0.527	0.414	0.143	0.0928	0.108	0.855	0.63	0.213	0.148	0.173	–	–	–	–	–	0.164	0.153	0.179	0.131	0.148
